This note sets out measurements from patent US20230067929A1, “HETEROCYCLIC DERIVATIVES, PHARMACEUTICAL COMPOSITIONS AND THEIR USE IN THE TREATMENT, AMELIORATION OR PREVENTION OF CANCER” (Tolremo Therapeutics AG, priority 2018, published 2023).

pEC50, pKd: −log10 of the molar value. Where only a bound is given, the exact number is not on record here.

The first assay has as its target T1, TRIM33(PHD, Bromo.) (Homo sapiens, UniProt Q9UPN9).
T1 construct: TRIM33(PHD, Bromo.)
T1 sequence (Q9UPN9 1-1127): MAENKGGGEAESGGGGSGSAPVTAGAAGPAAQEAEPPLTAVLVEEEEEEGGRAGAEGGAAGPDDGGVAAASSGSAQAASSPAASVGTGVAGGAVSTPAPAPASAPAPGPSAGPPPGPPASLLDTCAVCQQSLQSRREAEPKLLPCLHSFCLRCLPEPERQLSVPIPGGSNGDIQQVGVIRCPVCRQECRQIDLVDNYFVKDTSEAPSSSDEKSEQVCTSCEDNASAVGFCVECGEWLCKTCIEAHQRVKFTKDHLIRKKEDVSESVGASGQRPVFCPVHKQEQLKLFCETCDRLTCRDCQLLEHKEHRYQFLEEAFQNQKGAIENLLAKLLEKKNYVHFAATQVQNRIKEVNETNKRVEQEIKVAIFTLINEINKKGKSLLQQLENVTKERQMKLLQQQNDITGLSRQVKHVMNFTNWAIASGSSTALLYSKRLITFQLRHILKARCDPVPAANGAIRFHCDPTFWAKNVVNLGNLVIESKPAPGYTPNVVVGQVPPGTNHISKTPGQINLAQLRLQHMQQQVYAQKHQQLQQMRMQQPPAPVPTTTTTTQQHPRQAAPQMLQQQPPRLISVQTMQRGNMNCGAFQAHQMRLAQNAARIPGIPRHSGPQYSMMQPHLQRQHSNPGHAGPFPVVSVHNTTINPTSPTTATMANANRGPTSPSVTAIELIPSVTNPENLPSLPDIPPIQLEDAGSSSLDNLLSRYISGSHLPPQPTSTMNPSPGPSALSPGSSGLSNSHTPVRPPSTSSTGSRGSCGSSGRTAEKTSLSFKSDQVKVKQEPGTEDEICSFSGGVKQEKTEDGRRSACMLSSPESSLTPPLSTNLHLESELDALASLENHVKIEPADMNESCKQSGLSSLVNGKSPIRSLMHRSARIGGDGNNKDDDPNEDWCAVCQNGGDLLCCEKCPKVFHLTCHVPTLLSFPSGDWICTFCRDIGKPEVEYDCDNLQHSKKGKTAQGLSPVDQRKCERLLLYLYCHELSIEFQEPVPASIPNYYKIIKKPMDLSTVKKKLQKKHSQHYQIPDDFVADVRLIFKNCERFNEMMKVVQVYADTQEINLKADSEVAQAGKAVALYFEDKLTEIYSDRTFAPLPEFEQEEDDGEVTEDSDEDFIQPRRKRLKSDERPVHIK
The assay is described as follows: BromoKdMAX (BROMOscan) TRIM33(PHD, Bromo.). The format is binding. The note with it: TRIM33(PHD, Bromo.) (Entrez TRIM33). The procedure: A BromoKdMAX was performed at DiscoverX.
BROMOscan™ is a novel industry leading platform for identifying small molecule bromodomain inhibitors. Based on proven KINOMEscan™ technology, BROMOscan™ employs a proprietary ligand binding site-directed competition assay to quantitatively measure interactions between test compounds and bromodomains. This robust and reliable assay panel is suitable for high throughput screening and delivers quantitative ligand binding data to facilitate the identification and optimization of potent and selective small molecule bromodomain inhibitors.
For the Bromodomain assays, T7 phage strains displaying bromodomains were grown in parallel in 24-well blocks in an E. coli host derived from the BL21 strain. E. coli were grown to log-phase and infected with T7 phage from a frozen stock (multiplicity of infection=0.4) and incubated with shaking at 32° C. until lysis (90-150 minutes). The lysates were centrifuged (5,000×g) and filtered (0.2 μm) to remove cell debris. […] The liganded beads were blocked with excess biotin and washed with blocking buffer (SeaBlock (Pierce), 1% BSA, 0.05% Tween 20, 1 mM DTT) to remove unbound ligand and to reduce non-specific phage binding. […] Kds were determined using an 11-point 3-fold compound dilution series with one DMSO control point. […] The bromodomain concentration in the eluates was measured by qPCR.
For `COc1cncc(-c2cc(Nc3cccc(F)c3)nc([C@@H]3CC[C@H](C)N(C(C)=O)C3)n2)c1` [Compound 00212, (−)-1-((2S,5R)-5-(4-((3-fluorophenyl)amino)-6-(5-methoxypyridin-3-yl)pyrimidin-2-yl)-2-methylpiperidin-1-yl)ethan-1-one], the negative logarithm of the Kd (pKd) is under 5.00.

The test system of a further assay is A375 cells. The experiment in a line: A375 cell immunofluorescence assay (with 1 μM S1152 and 0.5 μM S1008), EC50. The note with it: 1 μM S1152 + 0.5 μM S1008, one day, ratio FL2/FL3 staining (sc-365823 antibody). The format is cell-based. The method in brief: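 A375 cells were treated for 1 day with 1 μM S1152, 0.5 μM S1008 and compound dose ranges in DMEM/10% FCS/2 mM glutamine, then fixed, permeabilized and immunostained (secondary antibody 2 μg/ml). FL2 (500-530 nm) signal was measured in propidium iodide-defined objects (FL3, 565-600 nm). The normalized ln FL2/ln FL3 ratio was log-transformed, and EC50 came from a 4-parameter fit.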
As for `CC(=O)N1CC2(c3nc(Nc4cccc(F)c4)cc(-c4cccnc4)n3)CCC1CC2`, the negative logarithm of the EC50 (pEC50) was under 5.00.

Consider `CC(=O)N1CCCC(c2cc(-c3cccnc3)cc(Nc3cccc(F)c3)n2)C1` (stereo not drawn), for which the pEC50 is 5.00 to 6.00.

Consider `CC(=O)N1CCCC(c2nc(Nc3cccc(F)c3)cc(-c3ccc(C)nc3C)n2)C1` (stereo not drawn), for which the pEC50 is 5.00 to 6.00.

As for `CC(=O)N1CCC(C)C(c2nc(Nc3cccc(F)c3)cc(-c3cccnc3)n2)C1` (stereo not drawn) [drawing 720], the negative-log EC50 (pEC50) was 5.00 to 6.00.

As to `CC(=O)N1C[C@H](c2nc(Nc3cccnc3)cc(-c3cccnc3)n2)CC[C@@H]1C`, the pEC50 is over 6.00.

Turning to `CCC(=O)N1CCCC(c2nc(Nc3cccc(C)c3)cc(-c3cccnc3)n2)C1` (stereo not drawn), the pEC50 was 5.00 to 6.00.

Turning to `CCC(=O)N1CCCC(c2nc(Cl)cc(Nc3cccc(F)c3)n2)C1` (stereo not drawn), the pEC50 was under 5.00.

For `CCC(=O)N1CCCC(c2nc(Nc3cccc(F)c3)cc(-c3ccc(NC(C)=O)cc3)n2)C1` (stereo not drawn), the pEC50 was 5.00 to 6.00.

`CCC(=O)N1CCCC(c2nc(Cl)cc(Oc3cccc(F)c3)n2)C1` (stereo not drawn): the negative-log EC50 (pEC50) was under 5.00.

As to `CCC(=O)N1CCCC(c2nc(Nc3cccc(F)c3)cc(-c3csc4cnccc34)n2)C1` (stereo not drawn), the pEC50 was 5.00 to 6.00.

With `CC(=O)N1CCCC(c2nc(Nc3cccc(F)c3)cc(-c3ncco3)n2)C1` (stereo not drawn), the negative-log EC50 (pEC50) is under 5.00.
